# Reference: PMC10673369, “Preliminary SAR of Novel Pleuromutilin–Polyamine Conjugates” (Microorganisms, 2023)
# Key:
# S. aureus ATCC 25923 [1] = assay: Real-time growth inhibition curves, S. aureus; format: cell-based; conditions: optical density during 18 h culturing
# Method: Real-time growth curves were determined using reported protocols (see Supplementary File).
# Further investigation is required to determine the factors leading to the differences observed in the sub-MIC growth curves for the two compounds.
# (§1) Briefly, restoring enhancer concentrations were determined with an inoculum of 5x10^5 CFU in 200 µL of MHB containing two-fold serial dilutions of each derivative in the presence of doxycycline at 4.5 […]
# (§2) The lowest concentration of the polyamine
# (§3) These measurements were independently repeated in triplicate.
# (§4) Outer membrane permeabilization was measured using nitrocefin as a chromogenic substrate of periplasmic β-lactamase. […] Nitrocefin hydrolysis was monitored spectrophotometrically by measuring the increase in absorbance at 490 nm. […]
# (§5) HEK293 cells were counted manually in a Neubauer hemocytometer and plated at a density of 5,000 cells/well into each well of the 384-well plates containing the 25x (2 µL) concentrated compounds [26,27]. […]
# (§6) To measure cytotoxicity, 5 µL (equals 100 µM final) of resazurin was added to each well after incubation and incubated for further 3 h at 37 °C with 5% CO2. After the final incubation, fluorescence intensity […]
# reader. […] The concentration-dependent percentage cytotoxicity was fitted to a dose–response function (using Pipeline Pilot) and CC50 values were determined. […]
# P. aeruginosa PAO1 [2] = assay: Real-time growth inhibition curves, P. aeruginosa; format: cell-based; conditions: optical density during 18 h culturing
# P. aeruginosa PAO1 [3] = assay: Nitrocefin hydrolysis assay (outer membrane permeabilization); format: cell-based; conditions: polymyxin B at 98.3 μM ([…])
# Method: Nitrocefin assays were conducted using reported protocols (see Supplementary File).
# We also examined the ability of 9e to act as membrane disruptor of the Gram-negative bacteria P. aeruginosa PAO1 (Figure 5), using a nitrocefin colorimetric assay. This assay makes use of a chromogenic cephalosporin derivative, which in the presence of an outer membrane disruptor gains entry to the periplasm, where upon the action of β-lactamases leads to substrate hydrolysis with a detectable color change from yellow to red.
# as §1, §2, §3, §4, §5, §6
# reader. […] The concentration-dependent percentage cytotoxicity was fitted to a dose–response function (using Pipeline Pilot) and CC50 values were determined.
# Human whole blood was washed three times with three volumes of 0.9% NaCl and then resuspended in the same solution to a concentration of 0.5 x 10^8 cells/mL, as determined by the manual cell count in a Neubauer hemocytometer. […] Hemolysis was determined by measuring the supernatant absorbance at […] (OD405). The absorbance was measured using a Tecan M1000 Pro monochromator plate reader. […]
# S. aureus ATCC 25923 [4] = assay: ATP efflux assay, S. aureus; format: cell-based, Staphylococcus aureus; conditions: compound at 100 µg/mL
# Method: (§7) ATP efflux assays were conducted using reported protocols (see Supplementary File).
# (§8) The mechanism of antibiotic action of 9e towards the Gram-positive bacterium Staphylococcus aureus was attributed to its ability to disrupt the bacterial membrane and cause the release of intracellular ATP. The test organisms, being S. aureus ATCC 25923 and MRSA, were briefly exposed to 9e at a single dose of 100 µg/mL, with the leakage of ATP determined by the use of a bioluminescence assay (Figure 4). […] Nevertheless, a 40% level of ATP release is detrimental to the survival of the bacteria. After 3 min, it will be clear that the bacteria will be killed.
# (§9) 2.9 ATP efflux measurement
# (§10) A solution of the compound was prepared in twice-distilled water at a fixed concentration of 100 µg/mL. The different Gram-positive suspensions were prepared in MH II broth and were incubated at 37 °C. […] Subsequently, 50 µL of Luceferin–Luceferase reagent (Yelen, France) was added to the mixture, and the luminescent signal was quantified with an Infinite M200 microplate reader (Tecan, Männedorf, Switzerland) for five seconds. ATP concentration was quantified by internal sample addition. Squalamine (100 µg/mL) was used as a positive control to quantify the maximum level of ATP efflux and water as the negative control. […]
# MRSA = assay: ATP efflux assay, MRSA; format: cell-based, methicillin-resistant S. aureus; conditions: compound at 100 µg/mL
# Method: as §7, §8, §9, §10
SMILES,Real-time bacterial growth inhibition (S. aureus ATCC 25923 [1]),Real-time bacterial growth inhibition (P. aeruginosa PAO1 [2]),Outer membrane perturbation (nitrocefin hydrolysis) (P. aeruginosa PAO1 [3]),ATP release relative to positive control squalamine (S. aureus ATCC 25923 [4]) [%],ATP release relative to positive control squalamine (MRSA) [%]
"C=C[C@]1(C)C[C@@H](OC(=O)CSCCN(CC)CC)[C@]2(C)[C@H](C)CC[C@]3(CCC(=O)[C@H]32)[C@@H](C)[C@@H]1O [Compound 2, Tiamulin, reference compound]",inhibited the growth,No such inhibition,failing to exhibit any detectable membrane perturbation,–,–
"C=C[C@]1(C)C[C@@H](OC(=O)CNCCCNCCCCCCCCCCNCCCNCC(=O)O[C@@H]2C[C@@](C)(C=C)[C@@H](O)[C@H](C)[C@]34CCC(=O)[C@H]3[C@@]2(C)[C@H](C)CC4)[C@]2(C)[C@H](C)CC[C@]3(CCC(=O)[C@H]32)[C@@H](C)[C@@H]1O.O=C(O)C(F)(F)F.O=C(O)C(F)(F)F.O=C(O)C(F)(F)F.O=C(O)C(F)(F)F [Compound 9e, N^1,N^1′-(Decane-1,10-diyl)bis(N^3-(2-(((3aR,4R,5R,7S,8S,9R,9aS,12R)-8-hydroxy-4,7,9,12-tetramethyl-3-oxo-7-vinyldecahydro-4,9a-propanocyclopenta [8]annulen-5-yl)oxy)-2-oxoethyl)propane-1,3-diaminium) 2,2,2-trifluoroacetate]",inhibited the growth,No such inhibition,inactive,40,40
